Source: PMC8214651, “Construction and characterization of a functional chimeric laccase from metagenomes suitable as a biocatalyst” (AMB Express, 2021)

Tested on: T1, Lcc120-3 (Mic-mg-MCO120-3)
T1 construct: 98 residues Micromonospora sp; MP36 MCO N-terminus (parent WP_148798198.1) + 387-residue metagenomic core + 54 residues MP36 MCO C-terminus; MBP deleted; E. coli BL21(DE3)
Test: spectrophotometric oxidation at […] nm, Lineweaver-Burk plot
Assay type: biochemical
Details: 50 mM potassium phosphate pH 7.0, 30 °C, purified enzyme without MBP; read-out: Lcc120-3 (Mic-mg-MCO) / Km (mM)/Vmax (U/mg protein)/kcat (s^-1)

Structure (SMILES): COc1cccc(OC)c1O [DMP, 2,6-dimethoxyphenol]
- Km: 10.5 mM
